{"source": "patent US20170022171A1", "about": "“2,5-DISUBSTITUTED CYCLOPENTANECARBOXYLIC ACIDS AND THEIR USE” (Bayer Pharma Aktiengesellschaft, priority 2014, published 2017)", "system": "rat hepatocytes", "experiment": "Hepatocyte assay for determination of metabolic stability", "type": "in vitro ADME", "details": "after incubation with rat hepatocytes", "procedure": "The metabolic stability of test compounds towards hepatocytes is determined by incubating the compounds at low concentrations (preferably below or around 1 μM) and at low cell counts (preferably at 1*10^6 cells/ml) in order to ensure maximum linearity of kinetic conditions in the experiment. Seven samples from the incubation solution are taken for the LC-MS analysis within a fixed time pattern, in order to determine the half-life (i.e. the degradation) of the particular compound. This half life is used to calculate various “Clearance” parameters (CL) and “Fmax” values (see below).\nThe CL and Fmax values are a measure of the phase 1 and phase 2 metabolism of the compounds in the hepatocytes. In order to minimize the influence of the organic solvent on the enzymes in the incubation batches, the concentration thereof is generally limited to 1% (acetonitrile) or 0.1% (DMSO).\nFor all species and breeds, a hepatocyte cell count in the liver of 1.1*10^8 cells/g of liver is expected.\nThe parameters calculated and the meanings thereof are: • Fmax well-stirred [%] maximum possible bioavailability after oral administration • Calculation: (1−CLblood well-stirred/QH)*100 • CLblood well-stirred [L/(h*kg)] calculated blood clearance (well-stirred model) • Calculation: (QH*CL′intrinsic)/(QH+CL′intrinsic) • CL′intrinsic[ml/(min*kg)] maximum ability of the liver (of the hepatocytes) to metabolize a compound (assuming that the liver blood flow is not rate-limiting) • Calculation: CL′intrinsic, apparent*species-specific hepatocyte count [1.1*10^8/g liver]*species-specific liver weight [g/kg] • CL′intrinsic, apparent[ml/(min*mg)] normalizes the elimination constant by dividing it by the hepatocyte cell count x used (x*10^6/ml) • Calculation: ke1[1/min]/(cell count [x*10^6]/incubation volume [ml]) • (QH=species-specific liver blood flow)."}
{"compound": "O=C(O)[C@H]1[C@H](Cn2nnc3ccc(C(F)(F)F)cc3c2=O)CC[C@@H]1C(=O)c1ccc(OCc2ccccc2)cc1", "note": "(racemic) [Example 11, (+/−)-(1RS,2RS,5SR)-2-[4-(Benzyloxy)benzoyl]-5-{[4-oxo-6-(trifluoromethyl)-1,2,3-benzotriazin-3(4H)-yl]methyl}cyclopentanecarboxylic acid]", "values": [{"measurement": "CLblood (calculated blood clearance, well-stirred)", "value": 18.7, "unit": "mL/min/kg"}, {"measurement": "Fmax (maximum possible bioavailability after oral administration, well-stirred)", "value": 73.3, "unit": "%"}]}
